How the values were obtained:
[1] = biological target: Glutamate receptor ionotropic, AMPA (Rattus norvegicus, UniProt P19490+P19491+P19492+P19493); assay: Tested for in vitro binding affinity against AMPA receptor using [3H]-AMPA binding assay; type: protein-complex assay
Glutamate NMDA receptor = assay: Inhibition of [3H]MDL-105,519 binding to NMDA receptor glycine-binding site; type: protein-complex assay, Rattus norvegicus
[2] = biological target: Glutamate NMDA receptor (Rattus norvegicus) (UniProt P35439+Q00959+Q00960+Q00961+Q62645+Q8VHN2+Q9R1M7); assay: Inhibition of [3H]MDL-105519 binding to NMDA receptor glycine binding site; type: protein-complex assay; parameters: concentration or dose not given beside the values; conditions: concentration not given here
[3] = biological target: T1, Glutamate receptor ionotropic, AMPA (Rattus norvegicus) (UniProt P19491+P19492+P19493+P19490); assay: Tested for in vitro binding affinity against AMPA receptor using [3H]-AMPA binding assay at a concentration of 1 uM; type: protein-complex assay
[4] = biological target: T1, Glutamate receptor ionotropic, AMPA (Rattus norvegicus); assay: Tested for in vitro binding affinity against AMPA receptor using [3H]AMPA binding assay; type: protein-complex assay

Compound	IC50 [1]	IC50 (Glutamate NMDA receptor)	inhibition [2]	inhibition [3]	Activity [4]
O=[N+]([O-])c1cc(CNc2ccccc2F)c2nc(O)c(O)nc2c1	1400 nM	500 nM			
O=[N+]([O-])c1cc(CNc2cccc(F)c2)c2nc(O)c(O)nc2c1	1400 nM	720 nM			
O=[N+]([O-])c1cc(CNc2ccccn2)c2nc(O)c(O)nc2c1	500 nM		0%		
NC(=O)[C@@H]1CCCC[C@@H]1NCc1cc([N+](=O)[O-])cc2nc(O)c(O)nc12	650 nM		25%		
Oc1nc2cc(Br)cc(CNCc3ccccn3)c2nc1O	12000 nM		40%		
CCOC(=O)Cc1csc(NCc2cc(Br)cc3nc(O)c(O)nc23)n1		340 nM		17%	
O=[N+]([O-])c1cc(CNc2cccnc2)c2nc(O)c(O)nc2c1	970 nM		12%		
COC(=O)C1CCCC(NCc2cc([N+](=O)[O-])cc3nc(O)c(O)nc23)C1 (stereo unspecified)	1300 nM		30%		
O=C(O)c1ccccc1NCc1cc(Cl)cc2nc(O)c(O)nc12	2000 nM	30 nM			
O=[N+]([O-])c1cc(CNCc2ccccn2)c2nc(O)c(O)nc2c1	3100 nM		40%		
O=[N+]([O-])c1cc(CNc2ccc(F)cc2)c2nc(O)c(O)nc2c1	1200 nM	750 nM			
O=C(O)Cc1csc(NCc2cc(Br)cc3nc(O)c(O)nc23)n1	1450 nM	120 nM			
O=C(O)Cc1csc(NCc2cc([N+](=O)[O-])cc3nc(O)c(O)nc23)n1	180 nM	120 nM			
COC(=O)c1ccccc1NCc1cc(Cl)cc2nc(O)c(O)nc12			25%	0%	
O=[N+]([O-])c1cc(CNc2ccccc2)c2nc(O)c(O)nc2c1	1500 nM	1400 nM			
O=[N+]([O-])c1cc(CNCc2ccncc2)c2nc(O)c(O)nc2c1	1400 nM		36%		
O=[N+]([O-])c1cc(CNc2cnccn2)c2nc(O)c(O)nc2c1	220 nM		59%		
O=C(O)c1ccccc1NCc1cc([N+](=O)[O-])cc2nc(O)c(O)nc12	50 nM	50 nM			
O=[N+]([O-])c1cc(CNc2nccs2)c2nc(O)c(O)nc2c1	190 nM		41%		
O=C(O)C1CCCC(NCc2cc([N+](=O)[O-])cc3nc(O)c(O)nc23)C1 (stereo unspecified)	780 nM		21%		
CCOC(=O)Cc1csc(NCc2cc([N+](=O)[O-])cc3nc(O)c(O)nc23)n1	1800 nM	410 nM			
O=[N+]([O-])c1cc(CN2CCC(O)C2)c2nc(O)c(O)nc2c1 (stereo unspecified)					330 nM
O=[N+]([O-])c1cc(CNc2ncccn2)c2nc(O)c(O)nc2c1	380 nM		12%		
O=C(O)c1cccc(NCc2cc([N+](=O)[O-])cc3nc(O)c(O)nc23)c1	900 nM		0%		
O=C(O)c1ccc(NCc2cc([N+](=O)[O-])cc3nc(O)c(O)nc23)cc1	1600 nM		10%		
O=C(O)[C@@H]1CCCC[C@@H]1NCc1cc([N+](=O)[O-])cc2nc(O)c(O)nc12	670 nM		25%		

— ChEMBL document CHEMBL1130977, “5-Aminomethylquinoxaline-2,3-diones. Part II: N-aryl derivatives as novel NMDA/glycine and AMPA antagonists” (Bioorg Med Chem Lett, 1998)
